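Protocol summary: plate cells (96-well), add compound at 5 concentrations, incubate 48 h, interpolate endpoints linearly. Abbreviation: GI50, concentration required for 50% inhibition of growth.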 The source made the active and inactive calls. Cut-off read from the data, not from the text of the source: active = GI50 up to about 1.1 µM and inactive = higher. Where a SMILES comes first, the peptide text is derived from it. Square brackets hold non-standard residues; d marks the D form. Peptide text beside a SMILES is read from it.
What was measured:
Experiment in all cases: NCI-60 cell line screen, 48 h
T47D = test system: T47D
MDA-N = test system: MDA-N
BT-549 = test system: BT-549
XF498 = test system: XF498
DLD-1 = test system: DLD-1
DMS-273 = test system: DMS-273
SNB-78 = test system: SNB-78
LXFL 529 = test system: LXFL 529

Structure (SMILES)	GI50 (T47D)	GI50 (MDA-N)	GI50 (BT-549)	GI50 (XF498)	GI50 (DLD-1)	GI50 (DMS-273)	GI50 (SNB-78)	GI50 (LXFL 529)
COC(C)(C)[C@@H](O)[C@H]1C[C@H](C)[C@@]2(CC[C@]3(C)[C@@H]2CC[C@@H]2[C@@]4(C)CC[C@@H](OC(C)=O)C(C)(C)[C@@H]4C[C@@H](OC4OC(COC(C)=O)C(O)C(O)C4O)[C@]23C)O1 (some centres not stated)	4.14 µM (inactive)	5.43 µM (inactive)	4.86 µM (inactive)					
O=C(CCN1CCOCC1)C(=Cc1ccccc1)C(=O)CCN1CCOCC1				4.29 µM (inactive)	1.82 µM (inactive)	8.65 µM (inactive)	0.164 µM (active)	
Cc1ccc(NC(=O)CC(=O)n2nc(C)c(/N=N/c3ccc(S(=O)(=O)CCOS(=O)(=O)O)cc3)c2C)cc1	> 100 µM (inactive)	> 100 µM (inactive)						
Nc1nc(NNc2ccc(Cl)c(Cl)c2)cc(=O)[nH]1		35.5 µM (inactive)	33.7 µM (inactive)					
O=C(O)COc1c(Cl)cc(Cl)c2cccnc12	> 100 µM (inactive)	> 100 µM (inactive)	> 100 µM (inactive)					
CN(C)c1cccc(OC(=O)NCCCl)c1				> 100 µM (inactive)	> 100 µM (inactive)	> 100 µM (inactive)		
[N-]=[N+]=Nc1c([N+](=O)[O-])c(Cl)nc2ccccc12	2.07 µM (inactive)	2.38 µM (inactive)	1.74 µM (inactive)					
CC(C)(Cl)C(Cl)CC/C(CBr)=C(\Cl)CBr (configuration not stated)	1.96 µM (inactive)	1.81 µM (inactive)	1.75 µM (inactive)					
O=C(C#CP(=O)(O)c1ccccc1)c1ccccc1	> 100 µM (inactive)	> 100 µM (inactive)						
COC(=O)c1ccc(C)cc1C1CN=NC12Cc1cc(C)c(C)cc1C2=O (configuration not stated)		27.9 µM (inactive)						
O=C1C(=O)N(c2ccc(Cl)c(Cl)c2)C(=O)C(=O)C1c1nc2ccccc2s1					> 100 µM (inactive)	> 100 µM (inactive)	> 100 µM (inactive)	> 100 µM (inactive)
CCc1ccccc1NC(=O)C1=C(C)NC(C)=C(C(=O)Nc2ccccc2CC)C1c1ccccc1Cl				0.152 µM (active)	> 100 µM (inactive)		> 100 µM (inactive)	> 100 µM (inactive)
FC(F)(Sc1ncccn1)c1nc2ccccc2o1	> 100 µM (inactive)	> 100 µM (inactive)	> 100 µM (inactive)					
O=C(C=P(c1ccccc1)(c1ccccc1)c1ccccc1)c1cccc(-c2cccc([N+](=O)[O-])c2)c1	4.9 µM (inactive)	2.49 µM (inactive)	4.74 µM (inactive)					
Cc1occc1C(=S)Nc1ccc(Cl)c(C(=O)OC(C(C)C)C(C)C)c1	4.49 µM (inactive)	12.1 µM (inactive)	16.6 µM (inactive)					
Cc1ccc2c(c1)SC1=Nc3sc4cc(C)ccc4[n+]3CN12	1.34 µM (inactive)		2.43 µM (inactive)					
COc1ccc(C(N)=O)c(OC)c1OCc1ccccc1					> 100 µM (inactive)	> 100 µM (inactive)	> 100 µM (inactive)	> 100 µM (inactive)
Clc1ccc(/N=c2\oc3ccccc3cc2-c2nc3ccccc3[nH]2)c(Cl)c1	> 100 µM (inactive)	83.6 µM (inactive)	> 100 µM (inactive)					
CCS(=O)(=O)Nc1ccc(Nc2c3ccccc3nc3ccccc23)c(OC)c1				0.0223 µM (active)	2.56 µM (inactive)	0.0324 µM (active)	4.89 µM (inactive)	
Cc1c(/C=N/NC(=S)Nc2ccccc2)c(=O)n(-c2ccccc2)n1C	> 100 µM (inactive)		> 100 µM (inactive)					

Structure (SMILES)	GI50 (T47D)	GI50 (MDA-N)	GI50 (BT-549)	GI50 (XF498)	GI50 (DLD-1)	GI50 (DMS-273)	GI50 (SNB-78)	GI50 (LXFL 529)
Cc1cc(Cl)nc(NC(=O)CSc2ccc(Cl)cc2)n1	> 100 µM (inactive)	> 100 µM (inactive)	> 100 µM (inactive)					
O=C(O)c1cc2c(ncc3c(=O)n(-c4ccccc4)[nH]c32)s1				> 100 µM (inactive)	> 100 µM (inactive)	> 100 µM (inactive)		> 100 µM (inactive)
NC1=NC(c2ccc(Cl)cc2)N(c2ccc(S(N)(=O)=O)cc2)C(N)=N1 (configuration not stated)	> 100 µM (inactive)	> 100 µM (inactive)	> 100 µM (inactive)					
Cc1sc2c(c1C)C(=O)c1cccn1-2	39.8 µM (inactive)	28.6 µM (inactive)	47.2 µM (inactive)					
COc1cccc(/C=C2\CCC(C)(CN(C)C)C2=O)c1 (configuration not stated)				> 100 µM (inactive)	62.4 µM (inactive)	70.5 µM (inactive)	> 100 µM (inactive)	
COC(=O)c1cc2c(c(C(=O)OC)c1)CCC2	63.5 µM (inactive)	> 100 µM (inactive)						
CC(C)(C)c1ccc(S(=O)(=O)N2C(c3cccc(C4CC[C@@H](C(=O)O)N4S(=O)(=O)c4ccc(C(C)(C)C)cc4)c3)CC[C@H]2C(=O)O)cc1 (some centres not stated)	29.9 µM (inactive)	55.2 µM (inactive)	50 µM (inactive)					
CCOc1ccc(NCC2CC/C(=C\c3ccc(O)cc3)C2=O)cc1 (configuration not stated)	19 µM (inactive)		12.9 µM (inactive)					
Cc1cc(/N=N/c2ccc(/N=N/c3c(O)c(S(=O)(=O)O)cc4cc(S(=O)(=O)O)ccc34)cc2C)ccc1/N=N/c1ccc2cc(S(=O)(=O)O)cc(S(=O)(=O)O)c2c1				> 73.5 µM (inactive)	> 100 µM (inactive)	98.4 µM (inactive)	> 100 µM (inactive)	
C/C(=N\NC(N)=S)c1ccc2c(c1)Sc1ccccc1O2	6.61 µM (inactive)	0.373 µM (active)						
CC1=CC[C@H](C[C@H](C#CCCCC2OCCO2)O[Si](C(C)C)(C(C)C)C(C)C)C(=O)CC1	> 100 µM (inactive)	> 100 µM (inactive)	> 100 µM (inactive)					
CC(O)(c1ccccc1)c1nccc2ccccc12 (configuration not stated)	68.1 µM (inactive)	23.4 µM (inactive)	56.1 µM (inactive)					
CCOC(=O)C(Cc1cn(C(C)=O)c2ccccc12)P(=O)(OCC)OCC (configuration not stated)	> 100 µM (inactive)	> 100 µM (inactive)						
Cc1ccc(S(=O)(=O)N/N=C/C2(c3ccccc3)c3ccccc3-c3ccccc32)cc1	2.09 µM (inactive)	4.28 µM (inactive)	14.2 µM (inactive)					
CC1NC(=O)CNC(=O)CNC(=O)C(Cc2ccc(O)cc2)NC(=O)C(C(C)C)NC(=O)C(C)NC1=O (configuration not stated) (cyclo(GGAAVY); configuration not given here)				> 100 µM (inactive)	> 100 µM (inactive)	> 100 µM (inactive)		
O=Cc1cc(O)c(O)c(/C=N/n2c3ccccc3c3ccccc32)c1	5.64 µM (inactive)		2.31 µM (inactive)					
COC1=CC(=O)c2nc3ccccc3c3ccnc1c23	5.71 µM (inactive)	0.448 µM (active)	14.6 µM (inactive)					
C(=C\c1nccs1)/c1cccc(/C=C/c2nccs2)n1	31.2 µM (inactive)	> 50 µM (inactive)	> 50 µM (inactive)					
CC12CCC(C(=O)OC1=O)C2(C)C (configuration not stated)	> 100 µM (inactive)	> 100 µM (inactive)						
CC(=O)NNC(=S)N/C=C1/C(=O)Oc2ccccc2C1=O	5.2 µM (inactive)	> 100 µM (inactive)	> 100 µM (inactive)					

Structure (SMILES)	GI50 (T47D)	GI50 (MDA-N)	GI50 (BT-549)	GI50 (XF498)	GI50 (DLD-1)	GI50 (DMS-273)	GI50 (SNB-78)	GI50 (LXFL 529)
CC(C)C[C@H](NC(=O)[C@H](CC(C)C)NC(=O)[C@@H](Cc1c[nH]c2ccccc12)NC(=O)[C@H](Cc1ccccc1)NC(=O)[C@@H](Cc1c[nH]c2ccccc12)NC(=O)[C@H](CCC(N)=O)NC(=O)[C@@H](CCC(N)=O)NC(=O)[C@@H]1CCCN1C(=O)[C@@H](CCCCN)NC(=O)[C@H]1CCCN1C(=O)[C@H](N)CCCN=C(N)N)C(N)=O (H-[dR][dP][dK]P[dQ]Q[dW]F[dW]LL-NH2)				> 100 µM (inactive)	> 100 µM (inactive)	> 100 µM (inactive)	> 100 µM (inactive)	
CCCCCCCCCCCCCCCCCCNc1nc(=O)n(C2CC(O)C(COP(=O)(O)OCC3OC(n4ccc(N)nc4=O)C(O)C3O)O2)cc1F (configuration not stated)	28.7 µM (inactive)	> 100 µM (inactive)	31.1 µM (inactive)					
N#CC12CC(C=O)=C(N)C1(C#N)CC(C=O)=C2N (configuration not stated)	37.8 µM (inactive)	32.4 µM (inactive)						
C=C1C(=O)C2(C)OC2(C)C1C(=O)O (configuration not stated)	> 100 µM (inactive)	> 100 µM (inactive)	> 100 µM (inactive)					
O=C([O-])Cc1ccccc1.[Na+] [SODIUM PHENYLACETATE]	774 µM (inactive)	10.6 µM (inactive)	723 µM (inactive)					
COC(=O)Cc1c(C2C(CC(=O)OC)c3ccccc3N2C2OC(CO)C(O)C(O)C2O)[nH]c2ccccc12 (configuration not stated)		> 100 µM (inactive)	> 100 µM (inactive)					
COc1cc(O)c2c(=O)c(OC)c(-c3ccc(OC)c(O)c3)oc2c1 [AYANIN]	3.83 µM (inactive)	73.1 µM (inactive)	20.4 µM (inactive)					
O=c1[nH]c(=O)n(COCc2ccccc2)cc1Nc1ccc(Br)cc1		> 100 µM (inactive)	> 100 µM (inactive)					
COc1ccc(-c2cc(-c3ccccc3)nc(N)n2)c(O)c1	5.86 µM (inactive)	4.55 µM (inactive)	1.7 µM (inactive)					
Nc1c(C(=O)c2ccccc2)[nH]c(NCc2ccccc2)c1C(=S)Nc1ccccc1	> 100 µM (inactive)	> 100 µM (inactive)	> 100 µM (inactive)					
COc1ccc2c3c1OC1C34CCN(C)C(C2)C4=CC(I)C1(OC)OC (configuration not stated)	16.3 µM (inactive)	6.14 µM (inactive)	21.6 µM (inactive)					
C/C(=N\Nc1nnc(S)n1N)c1c(O)cc(C)oc1=O					> 100 µM (inactive)		> 100 µM (inactive)	> 100 µM (inactive)
O=C(NC/C=C/CO)c1ccccc1				> 100 µM (inactive)	> 100 µM (inactive)	> 100 µM (inactive)	> 100 µM (inactive)	
C=C(CCOC)CCC1CCCCC(=C)[C@H]1OC(C)=O (some centres not stated)	> 100 µM (inactive)	> 100 µM (inactive)						
O=Cc1cc([N+](=O)[O-])no1	50.5 µM (inactive)	23.7 µM (inactive)	> 100 µM (inactive)					
CC1=C(N2CC2)C(=O)C(CO)=C(N2CC2)C1=O	0.0114 µM (active)		0.13 µM (active)					
CC1(C)N=C(N)N=C(N)N1c1cccc(OCc2cccc([N+](=O)[O-])c2)c1	38.3 µM (inactive)	3.29 µM (inactive)	> 53.1 µM (inactive)					
C(CCc1nnc2c(n1)CCCC2)Cc1nnc2c(n1)CCCC2	> 100 µM (inactive)	88.3 µM (inactive)	> 100 µM (inactive)					
Cc1cc(-c2nc3ccccc3s2)ccc1NC(=O)[C@H](C)N	0.128 µM (active)	10.4 µM (inactive)	15.7 µM (inactive)					
O=c1[nH][nH]c(=O)n1Cc1ccccc1Cn1c(=O)[nH][nH]c1=O	> 100 µM (inactive)	> 100 µM (inactive)	> 100 µM (inactive)					

Reference: ChEMBL document CHEMBL1201862, “PubChem BioAssay data set” (2004)
